Data: patent US20190374628A1, “MUTATED FRAGMENTS OF THE RAS PROTEIN” (Targovax ASA, priority 2015, published 2019)
Several values for one entry are separate records, joined by “and”; a condition that tells them apart may be missing. Equal values may be shown once.

Columns and labels:
[1] = system: splenocytes; assay: Splenocyte proliferation assay (3H-thymidine) after subcutaneous vaccination of mice with TG02; format: cell-based, BALB/c mice; conditions: ex vivo 10 μM TG02 per peptide or 1 μg/200 μL ConA, 5 days; for Counts per minute (CPM) of stimulated splenocytes: single replicates
Protocol: In this Example, mice were repeatedly vaccinated subcutaneously with TG02, in order to analyse the immune response. Following the vaccination, splenocytes were harvested, and the proliferative response of the splenocytes was measured.
The study was conducted with 3 groups, each compromising 10 female BALB/c mice. The start of the study was performed on two separate days on which 5 of the animals per group were treated. Therefore the groups were divided into part I and part II. The animals were treated subcutaneously at different time points (Table 30).
In all groups the test item was administered at repeated time points (Table 33) by subcutaneous injection between the nape of the neck and the shoulder. The application volume for all groups was 0.1 mL (0.80 mg TG02).
The spleen of all animals was removed, transferred to cell culture medium (RPMI 1640 medium supplemented with 10% FCS, 100 U/mL Penicillin, 100 μg/mL Streptomycin, 2 mM L-Glutamine, and 50 μM beta-mercaptoethanol) and stored on ice. All steps were performed sterile and cells were kept on ice.
A single cell suspension from splenic cells was generated using a cell strainer. After centrifugation (350 g, 5 min, 5±3° C.), supernatant was removed and the cell pellet was resuspended in ACK buffer and incubated for 5 min at RT. 10 mL cell culture medium was added. The samples were left 5 min on bench top to let the cell debris sediment. The suspension above the cell debris was transferred into another tube and was centrifuged (350 g, 5 min, 5±3° C.). The supernatant was removed and the cell pellet was resuspended in 10 mL cell culture medium. After counting of cells, 0.2 Mio cells were seeded in a 96 well plate (180 μL per well; 1,1*10^6 cells/mL). 9 replicates were plated on each plate for each spleen.
The following stimulations were performed: • 3 replicates: unstimulated (addition of 20 μL cell culture medium) • 3 replicates: stimulation with 10 μM TG02 (8 peptides, 10 μM end concentration per peptide, addition in 20 μL cell culture medium) • 3 replicates: stimulation with 1 μg/200 μL ConA (Concanavalin A) (addition of 1 μg ConA in 20 μL cell culture medium)
Incubation at 37° C. and 5% CO2 for 24 h (1), 48 h (2) or 5 days (3).
Proliferation Assay • (3) After 5 days, 1 μCi/well ^3H-Thymidine was added to the samples, which were then incubated for 18 h at 37° C. and 5% CO2. The plates were then frozen at […]
Plates were thawed at RT. After washing off the harvester, the samples were transferred to a filter plate using the harvester followed by 5 washing steps using water. Filter plates were dried at RT overnight. A foil was stuck to the bottom of the filter plates and 20 μL scintillation fluid was added to the wells. After incubation of 1 h at RT, the samples were measured using a TopCount NXT and the stimulation index (SI) was calculated. SI=CPM of stimulated samples/CPM of control samples.

[2] = system: T-cells; assay: 3-day T-cell proliferation assay after stimulation of buffy coat PBMCs with TGX3 or A146T peptide; format: cell-based, human; conditions: buffy coat of healthy donor (buffy 5), FIG. 11
From the text: In this Example, Buffy coats were collected from three normal donors (Buffy 5, Buffy 6, and Buffy 7) for testing of T cell responses to selected peptides reflecting exon 2, 3 and 4 mutations in RAS. The standard operating procedure (SOP) for monitoring of T cell responses in clinical studies with KRAS peptide vaccination (TG01) was used for testing of peptide cocktail TGX3 and individual peptides.
Peptide cocktail TGX3 was a mixture of equimolar amounts of A146T+G13C+G13D+Q61R.
The procedure was performed at room temperature. All handling of cells in the open was done in a vertical laminar flow hood. • 1. 3 Buffy coats were ordered from Blodbanken, Ulleval, OUS, Norway • 2. PBMCs were isolated according to methods C001-003 (platelet-low). • 3. The number of viable cells was counted using KOVA Galsstic slides and the cell concentration adjusted to 4×10^6 cells/ml in complete CellGro DC medium (see recipe). Total cell numbers: Buffy 5-585×10^6, Buffy 6-360×10^6, and Buffy 7-405×10^6 cells. […]
c) Second Stimulation (Day 14) of Bulk Cultures • 1. Day 14: Harvested, washed and counted T-cells in the bulk cultures from 6.2; […]
d) Third Stimulation (Day 19) and Testing for Specificities in 3-Day T-Cell Proliferation Assay—Bulk Cultures • 1. Day 19: Harvested, washed and counted T-cells in the bulk cultures from 6.3; […]

[3] = system: T-cells; assay: Bulk cultures for increasing number of TGX3 and peptide reactive T-cells: total T cell numbers; format: cell-based, human; conditions: for Total T cell numbers in cultures: Day 14, after first stimulation, 10 μM of each peptide; for Total T cell numbers: Day 19, after second stimulation
Protocol: b) First Stimulation—Bulk Cultures for Increasing Number of TGX3 and Peptide Reactive T-Cells • 1. Transfered 1 ml of the different PBMCs (4×10^6 cells/ml in DC medium) to each well in a 24-well plate.
• 2. Added TGX3-mix/single peptide to each well for a final concentration of 10 μM of each peptide. • 3. Cultured the cells in a humidified incubator at 37° C./5% CO2 for 3 days • 4. Day 3: Added a final concentration of 20 iU/ml of recombinant human interleukin-2 (rIL-2, b#77) and final concentration of 5 ng/ml recombinant human IL-7 (b#25) to the cell cultures and continued incubation at 37° C./5% CO2. This depended on how fast the cells were growing and needed to be decided by a trained person with T-cell culture experience (according to checklist for training, Section for Cell Therapy). • 5. Days 4-12: Cells were checked regularly under the microscope and split when required (500 μl was withdrawn from each well and replaced with 500 μl fresh CellGro DC medium, supplemented with 20 iU/ml IL-2 and 5 ng/ml IL-7) and wells with slow growing cells were mixed together.
c) Second Stimulation (Day 14) of Bulk Cultures • 1. Day 14: Harvested, washed and counted T-cells in the bulk cultures from 6.2;
Bulk culture cells (ca 2×10^6 T cells/well) were re-stimulated once more with autologous irradiated (30 Gy) APCs (ca 2×10^6 APCs/well) added their respective peptides (as described in step b) above). • 2. Cultured the cells in a humidified incubator at 37° C./5% CO2 for 3 days. • 3. Day 3 after second stimulation (i.e. Day 17 of the procedure): A final concentration of 20 iU/ml of recombinant human interleukin-2 (rIL-2, b#77) and final concentration of 5 ng/ml recombinant human IL-7 (b#25) were added to the cell cultures and continued incubation at 37° C./5% CO2 (as described in step b) above). • 4. Day 18-26: Cells were checked regularly under the microscope and split when required (500 μl was withdrawn from each well and replaced with 500 μl fresh CellGro DC medium, supplemented with 20 iU/ml IL-2 and 5 ng/ml IL-7) and wells with slow growing cells were mixed together (see step b) above).
d) Third Stimulation (Day 19) and Testing for Specificities in 3-Day T-Cell Proliferation Assay—Bulk Cultures • 1. Day 19: Harvested, washed and counted T-cells in the bulk cultures from 6.3;

Substance	Mean counts per minute (CPM) of stimulated splenocytes ([1]; Mean Mouse #4 (vaccinated with TG02))	Mean counts per minute (CPM) of stimulated splenocytes ([1]; Mean Mouse #7 (vaccinated with TG02)) [CPM]	Mean counts per minute (CPM) of stimulated splenocytes ([1]; Mean Mouse #24 (vaccinated with TG02+Viscogel)) [CPM]	Mean counts per minute (CPM) of stimulated splenocytes ([1]; Mean Mouse #29 (vaccinated with TG02+Viscogel))	Counts per minute (CPM) of stimulated splenocytes ([1]; Mouse #4 (vaccinated with TG02))	Counts per minute (CPM) of stimulated splenocytes ([1]; Mouse #7 (vaccinated with TG02))	Counts per minute (CPM) of stimulated splenocytes ([1]; Mouse #24 (vaccinated with TG02+Viscogel))	Counts per minute (CPM) of stimulated splenocytes ([1]; Mouse #29 (vaccinated with TG02+Viscogel))	Counts per minute (CPM) of stimulated splenocytes ([1]; Mouse #30 (vaccinated with TG02+Viscogel))	Mean counts per minute (CPM) of stimulated splenocytes ([1]; Mouse #30 mean line (vaccinated with TG02+Viscogel))	T-cell proliferation after stimulation with A146T peptide (result in words) [2]	T-cell proliferation after stimulation with A146T peptide (result in words) ([2]; listed as A146T peptide)	Total T cell numbers in cultures ([3]; Buffy 5)	Total T cell numbers ([3]; Buffy 5)	Total T cell numbers in cultures ([3]; Buffy 6)	Total T cell numbers ([3]; Buffy 6)	Total T cell numbers in cultures ([3]; Buffy 7)	Total T cell numbers ([3]; Buffy 7)
Concanavalin A [ConA]	15,210 CPM	6158	8823	10,935 CPM	15,113 CPM and 12,612 CPM and 17,906 CPM	5305 CPM and 6252 CPM and 6916 CPM	7834 CPM and 8578 CPM and 10,057 CPM	9480 CPM and 13,292 CPM and 10,033 CPM	32,205 CPM and 35,668 CPM and 42,149 CPM	36,687 CPM								
GIPFIETSTKTRQRVED (listed as Homo sapiens) [A146T, KRAS peptide having a A146T mutation]											immunogenic and is efficient in inducing T-cell proliferation	stimulates induction of T-cells	4 × 10^6	10.8 × 10^6	4 × 10^6	12.6 × 10^6	6.8 × 10^6	14.4 × 10^6
